{"source": "patent US8158634B2", "about": "“Compounds and compositions as inhibitors of cannabinoid receptor 1 activity” (IRM LLC, priority 2004, dated 2012)", "target": "T1, human cannabinoid receptor 2 (CB2) (Homo sapiens, UniProt P34972)", "T1 construct": "expressed in transfected cells", "T1 sequence (P34972 whole entry)": "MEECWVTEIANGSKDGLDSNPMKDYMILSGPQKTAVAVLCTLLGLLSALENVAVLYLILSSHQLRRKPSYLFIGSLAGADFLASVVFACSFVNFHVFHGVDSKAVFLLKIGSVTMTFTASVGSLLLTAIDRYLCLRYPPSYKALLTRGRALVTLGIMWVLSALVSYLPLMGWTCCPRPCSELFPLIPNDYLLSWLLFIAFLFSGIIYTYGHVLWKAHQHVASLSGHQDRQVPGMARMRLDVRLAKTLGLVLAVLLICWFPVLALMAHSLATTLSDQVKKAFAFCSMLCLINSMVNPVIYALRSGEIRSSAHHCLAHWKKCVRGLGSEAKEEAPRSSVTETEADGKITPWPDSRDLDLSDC", "experiment": "CB2 in vitro assays on CHO cell membranes ([3H]-CP55940 ligand binding / GTPγS binding), Ki by Cheng-Prusoff", "settings": "membranes of CHO cells stably expressing human CB2; EC50 converted by Cheng-Prusoff", "method": "Homogenized membranes are prepared from CHO cell clones stably expressing a human cannabinoid receptor 1 (CB1) or human cannabinoid receptor 2 (CB2). Cells are grown and scrapped from 15 cm tissue culture plates, and then subsequently centrifuged down. Cells are washed once with cold PBS, and resuspended in <20 ml of Buffer A (20 mM HEPES, pH 7.4, 10 mM EDTA, EDTA-free complete protease inhibitor cocktail [1 tablet/25 ml]). The cell suspension is homogenized on ice, using a Polytron homogenizer at 25000 rpm at three intervals of 15 seconds each. The homogenate is first centrifuged at 2000 rpm on a tabletop low speed centrifuge for 10 minutes. The supernatant, after passing through a cell strainer, is then centrifuged at 50,000×g for 25 minutes at 4° C. The pellet is resuspended into buffer B (15% glycerol, 20 mM HEPES, pH 7.4, 0.1 mM EDTA, EDTA-free complete protease inhibitor cocktail [1 tablet/10 ml]). Protein concentration of the prep is determined using the BCA Protein Assay kit using BSA as standard. The membranes are aliquoted and kept frozen at −80° C.\n[^3H]-CP55940 ligand binding assay: Solutions of test compounds ranging from 100 μM to 0.01 nM are prepared in DMSO. The desired amount of membrane prep is diluted with ice-cold assay buffer (50 mM Tris-HCl, 2.5 mM EDTA, 5 mM MgCl2, 0.05% BSA, pH 7.4) and vortexed well. […]"}
{"smiles": "O=c1c2cnn(-c3ccccc3)c2nc(-c2ccccc2F)n1-c1ccc(Br)cc1", "note": "[Compound 19, 5-(4-Bromo-phenyl)-6-(2-fluoro-phenyl)-1-phenyl-1,5-dihydro-pyrazolo[3,4-d]pyrimidin-4-one]", "values": [{"measurement": "Ki", "value": "> 5", "unit": "µM"}]}
